# From article PMC5447021, “TNF Lectin-Like Domain Restores Epithelial Sodium Channel Function in Frameshift Mutants Associated with Pseudohypoaldosteronism Type 1B” (Frontiers in Immunology, 2017)
# “Also recorded” adds a separate entry of the source. Marks after values point to notes of the source that are not given here.
# Legend:
# [1] = target: T1, δ-hENaC (Homo sapiens, UniProt P51172); design: method as in PMID 24077967; details: δ-hENaC alone, control current 60.6 ± 2.5 pA, mean ± S.E.; cited from earlier work
# T1 construct: expressed in transfected cells; host or cells: HEK-293
# T1 sequence (P51172 1-638 isoform P51172-1): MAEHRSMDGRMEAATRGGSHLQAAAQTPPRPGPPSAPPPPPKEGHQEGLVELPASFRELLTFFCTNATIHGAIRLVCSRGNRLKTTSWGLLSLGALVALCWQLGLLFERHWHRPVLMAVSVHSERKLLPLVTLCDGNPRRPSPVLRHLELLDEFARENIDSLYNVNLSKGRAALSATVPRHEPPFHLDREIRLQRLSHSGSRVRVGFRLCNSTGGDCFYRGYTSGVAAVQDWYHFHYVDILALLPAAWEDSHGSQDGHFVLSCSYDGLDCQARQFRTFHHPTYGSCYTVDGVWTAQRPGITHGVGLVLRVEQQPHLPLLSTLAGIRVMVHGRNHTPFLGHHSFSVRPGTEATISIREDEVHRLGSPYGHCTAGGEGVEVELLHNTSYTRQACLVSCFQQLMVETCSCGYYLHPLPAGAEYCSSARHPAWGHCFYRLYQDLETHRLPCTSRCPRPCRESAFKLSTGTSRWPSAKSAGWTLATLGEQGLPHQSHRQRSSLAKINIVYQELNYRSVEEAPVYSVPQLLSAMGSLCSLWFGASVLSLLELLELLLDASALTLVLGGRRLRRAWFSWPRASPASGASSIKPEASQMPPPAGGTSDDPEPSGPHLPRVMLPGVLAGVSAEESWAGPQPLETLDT
# [2] = target: T2, αR448fsβγ-ENaC (Homo sapiens, UniProt P37088+P51168+P51170); experiment: Whole-cell patch clamp, αR448fs + WT βγ; assay type: cell-based; details: αR448fsβγ preincubated with 100 units PNGase F; 200 nM solnatide or 20 nM TNF; n = 3
# T2 construct: expressed in transfected cells; host or cells: HEK-293
# T2 sequence (P37088 with tags, fused parts or gaps): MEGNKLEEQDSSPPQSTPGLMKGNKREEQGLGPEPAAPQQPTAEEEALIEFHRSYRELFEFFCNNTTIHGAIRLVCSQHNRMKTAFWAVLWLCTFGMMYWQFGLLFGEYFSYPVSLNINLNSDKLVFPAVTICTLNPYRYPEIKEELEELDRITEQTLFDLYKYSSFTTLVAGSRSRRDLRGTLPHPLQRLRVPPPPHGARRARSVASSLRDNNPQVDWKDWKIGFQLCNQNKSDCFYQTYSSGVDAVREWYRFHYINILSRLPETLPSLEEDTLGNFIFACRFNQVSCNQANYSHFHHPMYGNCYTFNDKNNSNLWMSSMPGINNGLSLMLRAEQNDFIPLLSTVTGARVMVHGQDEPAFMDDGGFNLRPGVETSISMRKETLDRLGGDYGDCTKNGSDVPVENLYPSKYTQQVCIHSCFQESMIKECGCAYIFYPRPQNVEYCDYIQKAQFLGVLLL
# T2 sequence (P51168 whole entry partner): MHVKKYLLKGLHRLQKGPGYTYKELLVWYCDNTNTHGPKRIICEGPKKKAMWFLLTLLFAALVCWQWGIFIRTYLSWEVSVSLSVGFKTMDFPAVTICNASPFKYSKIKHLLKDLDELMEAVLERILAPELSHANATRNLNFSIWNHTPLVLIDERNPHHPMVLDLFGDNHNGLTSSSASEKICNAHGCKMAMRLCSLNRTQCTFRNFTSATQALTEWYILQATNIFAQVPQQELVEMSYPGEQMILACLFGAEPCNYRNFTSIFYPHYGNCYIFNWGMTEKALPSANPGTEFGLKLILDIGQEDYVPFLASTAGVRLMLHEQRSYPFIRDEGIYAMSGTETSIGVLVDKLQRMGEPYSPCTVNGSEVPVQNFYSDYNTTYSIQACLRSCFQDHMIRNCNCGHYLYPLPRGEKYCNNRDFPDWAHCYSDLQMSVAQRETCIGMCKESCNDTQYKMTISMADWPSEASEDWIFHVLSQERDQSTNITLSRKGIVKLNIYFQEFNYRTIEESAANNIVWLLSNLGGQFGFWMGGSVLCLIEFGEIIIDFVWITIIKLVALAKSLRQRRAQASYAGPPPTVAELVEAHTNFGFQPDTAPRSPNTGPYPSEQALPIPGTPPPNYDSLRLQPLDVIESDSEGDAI
# T2 sequence (P51170 whole entry partner): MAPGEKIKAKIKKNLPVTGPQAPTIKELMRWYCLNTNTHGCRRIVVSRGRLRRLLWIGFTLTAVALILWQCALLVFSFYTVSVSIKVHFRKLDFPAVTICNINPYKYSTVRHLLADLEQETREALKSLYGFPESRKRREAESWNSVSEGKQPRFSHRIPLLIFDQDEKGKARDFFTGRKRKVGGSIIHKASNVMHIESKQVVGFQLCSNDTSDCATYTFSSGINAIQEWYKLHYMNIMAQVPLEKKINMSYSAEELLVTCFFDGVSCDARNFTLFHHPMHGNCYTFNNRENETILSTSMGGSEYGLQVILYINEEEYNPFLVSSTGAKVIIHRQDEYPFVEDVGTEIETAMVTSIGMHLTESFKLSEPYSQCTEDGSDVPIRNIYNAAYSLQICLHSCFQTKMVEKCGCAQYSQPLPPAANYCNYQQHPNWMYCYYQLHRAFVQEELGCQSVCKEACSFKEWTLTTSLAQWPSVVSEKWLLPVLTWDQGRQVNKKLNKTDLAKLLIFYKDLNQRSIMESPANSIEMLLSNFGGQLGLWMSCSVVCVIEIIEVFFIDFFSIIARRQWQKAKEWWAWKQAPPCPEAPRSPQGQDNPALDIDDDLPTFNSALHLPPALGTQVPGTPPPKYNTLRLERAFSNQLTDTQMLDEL
# Procedure: Currents were recorded with the patch clamp method in the whole-cell mode. […] Chemicals for pipette and bathing solutions were supplied by Sigma-Aldrich (Vienna, Austria). Electrophysiological measurements were carried out with an Axopatch 200B patch clamp amplifier (Axon Instruments, CA, USA).
# [3] = test system: αT169fs; experiment: Membrane abundance of αT169fs; assay type: cell-based, human; details: 200 nM, relative to WT control (=1)
# Procedure: (§1) Cell surface biotinylation was performed as previously described ([26]). In brief, A549 cells or transiently transfected HEK-293 cells were grown in 10 cm dishes in 37°C, 5% CO2 incubator in DMEM medium supplemented with 5% FBS. […] Medium was aspirated, and then cells were washed twice with 10 ml ice-cold phosphate-buffered saline (PBS), covered with 2.5 mg EZ-Link Sulfo-NHS-SS-Biotin (Thermo Scientific, Rockford, USA), dissolved in 10 ml ice-cold PBS, and incubated at 4°C with gentle agitation for 30 min. Fifty milliliters of quenching solution were added to cells; then cells were scraped in solution and transferred to fresh 50 ml tube. Cell suspension was centrifuged at 500 × g for 3 min. Supernatant was discarded, and 5 ml of Tris-buffered saline (TBS) was added to the cell pellet. The cell pellet was resuspended and centrifuged at 500 × g for 3 min. Supernatant was discarded and cell pellet was resuspended in lysis buffer containing protease inhibitor cocktail (10 µM pepstatin A, 10 µM phenylmethylsulfonyl fluoride, and 10 µM leupeptin) and transferred to fresh 1.5 ml centrifuge tube. Cell pellet was then homogenized on ice by ultrasonication using 1 s bursts and incubated on ice for at least 30 min. Intact cells and nuclei were pelleted by centrifugation at 10,000 × g for 2 min under cooling conditions. […] Exposed films were scanned and quantified using ImageJ (NIH, MD, USA). […]
# [4] = test system: αE272fs; experiment: Membrane abundance of αE272fs; assay type: cell-based, human; details: 200 nM, relative to WT control (=1), own control 0.35 ± 0.06, p < 0.001 vs control
# Procedure: as §1
# [5] = test system: αT482fs; experiment: Membrane abundance of αT482fs; assay type: cell-based, human
# Procedure: Cell surface biotinylation was performed as previously described ([26]). In brief, A549 cells or transiently transfected HEK-293 cells were grown in 10 cm dishes in 37°C, 5% CO2 incubator in DMEM medium supplemented with 5% FBS. […] Medium was aspirated, and then cells were washed twice with 10 ml ice-cold phosphate-buffered saline (PBS), covered with 2.5 mg EZ-Link Sulfo-NHS-SS-Biotin (Thermo Scientific, Rockford, USA), dissolved in 10 ml ice-cold PBS, and incubated at 4°C with gentle agitation for 30 min. Fifty milliliters of quenching solution were added to cells; then cells were scraped in solution and transferred to fresh 50 ml tube. Cell suspension was centrifuged at 500 × g for 3 min. Supernatant was discarded, and 5 ml of Tris-buffered saline (TBS) was added to the cell pellet. The cell pellet was resuspended and centrifuged at 500 × g for 3 min. Supernatant was discarded and cell pellet was resuspended in lysis buffer containing protease inhibitor cocktail (10 µM pepstatin A, 10 µM phenylmethylsulfonyl fluoride, and 10 µM leupeptin) and transferred to fresh 1.5 ml centrifuge tube. Cell pellet was then homogenized on ice by ultrasonication using 1 s bursts and incubated on ice for at least 30 min. Intact cells and nuclei were pelleted by centrifugation at 10,000 × g for 2 min under cooling conditions. Pellet was then discarded and supernatant was transferred to fresh tube, incubated overnight with 0.5 ml NeutrAvidin Agarose under gentle rotation at 4°C and centrifuged at 500 × g for 5 min under cooling conditions. Supernatant was then discarded and the pellet washed twice with 200 µl lysis buffer. The biotinylated proteins were eluted with 100 µl sodium dodecyl sulfate (SDS) sample buffer (62.5 mM Tris, pH 6.8, 1% SDS, 10% glycerine, 50 mM dithiothreitol) containing 10 µM E64 at 65°C for 10 min. Sample was then centrifuged at 500 × g for 2 min. Pellet was discarded and supernatant subjected to protein electrophoresis and immunoblotting. The biotinylated proteins were separated under reducing conditions by SDS-PAGE using 7.5% SDS gel along with prestained protein marker (cat. #12949 from Cell Signaling). Proteins were then transferred onto a nitrocellulose membrane (UltraCruzTM […], Santa Cruz Biotechnology, TX, USA) by semi-dry blotting at 25 V for 30 min. Unspecific binding sites were blocked by incubating the membrane overnight at 4°C with 3% FBS in PBS supplemented with 0.02% sodium azide. Membrane was then incubated for 90 min with primary antibody (anti-α-hENaC, anti-δ-hENaC, and anti-β-actin from Sigma Aldrich; anti-β- and anti-γ-hENaC from Santa Cruz Biotechnology). Membrane was washed 5× with 10 ml PBS containing 0.1% Tween-20 (PBST), and corresponding horseradish peroxidase-conjugated secondary antibodies (Santa Cruz Biotechnology) were applied. After 90-min incubation, membrane was washed 3× with PBST and once with PBS. Enhanced chemiluminescence (ECL) substrate (Amersham ECL Plus Western Blotting Detection Reagent, GE Healthcare, Vienna, Austria) was used for visualization. Following incubation for 2 min, membranes were exposed to X-ray films (Amersham Hyperfilm ECL, GE Healthcare). Exposed films were scanned and quantified using ImageJ (NIH, MD, USA).
# To study α-ENaC protein abundance in plasma membrane cell surface, biotinylation of HEK-293 cells transiently transfected with WT or different PHA1B mutants was followed by SDS-PAGE and immunoblotting. Expression of frameshift mutants varied markedly. […]
# [6] = test system: rat lung transplantation; details: instilled intratracheally into rats prior to lung transplantation; cited from earlier work
# Description: (§2) Like TNF, TIP peptide can influence regulation of alveolar fluid balance.
# [7] = test system: pulmonary edema; details: acute hypobaric hypoxia and exercise; cited from earlier work
# Description: as §2
# [8] = test system: flooded rat lung; details: in situ and in vivo; cited from earlier work
# Description: as §2
smiles,measurement,setting,value
"C[C@@H]1NC(=O)CNC(=O)[C@H](CCC(=O)O)NC(=O)[C@@H]2CCCN2C(=O)[C@H]([C@@H](C)O)NC(=O)[C@H](CCC(=O)O)NC(=O)[C@H](CCCNC(=N)N)NC(=O)[C@H](CCC(N)=O)NC(=O)CNC(=O)[C@@H](N)CSSC[C@@H](C(=O)O)NC(=O)[C@H](Cc2ccc(O)cc2)NC(=O)[C@H](Cc2c[nH]c3ccccc23)NC(=O)[C@@H]2CCCN2C(=O)[C@H](CCCCN)NC(=O)[C@H](C)NC(=O)[C@H](CCC(=O)O)NC1=O [solnatide, L-cysteine, L-cysteinylglycyl-L-glutaminyl-L-arginyl-L-α-glutamyl-L-threonyl-L-prolyl-L-α-glutamylglycyl-L-alanyl-L-α-glutamyl-L-alanyl-L-lysyl-L-prolyl-L-tryptophyl-L-tyrosyl-, cyclic (1→17)-disulfide]","Maximal induced current, solnatide",[1],15.6 ± 7.9 pA
same,Current activation after PNGase F,[2],no current could be induced; also recorded: neither TNF nor solnatide potentiated amiloride-sensitive current in αR448fsβγ-ENaC following PNGase F treatment
same,"Membrane abundance, solnatide 5 min","[3]; 5 min, own control 0.54 ± 0.06, p < 0.001 vs control",0.80 ± 0.03
same,"Membrane abundance, solnatide 10 min","[3]; 10 min, own control 0.54 ± 0.06",0.46 ± 0.09
same,"Membrane abundance, solnatide 5 min",[4]; 5 min,0.72 ± 0.03
same,"Membrane abundance, solnatide 10 min",[4]; 10 min,0.64 ± 0.05
same,Membrane abundance,"[5]; glycosylated αT482fs, 200 nM solnatide, 5 min, n = 4",even more after 5 min of solnatide treatment
same,Increase in membrane abundance after PNGase F,"[5]; αT482fs, 200 nM solnatide, 100 units PNGase F, n = 4",completely abolished in deglycosylated mutants; also recorded: after PNGase F treatment no differences can be observed
same,Membrane abundance after solnatide,"[5]; αT482fs, HEK-293, discussion, no time stated",the membrane abundance increasing even further following exposure to solnatide
same,"Membrane abundance, solnatide 5 min","[5]; αT482fs, 200 nM, 5 min, relative to WT control (=1), own control 4.67 ± 0.27, p < 0.001 vs control, n = 4",6.23 ± 0.24***
same,"Membrane abundance, solnatide 10 min","[5]; αT482fs, 200 nM, 10 min, relative to WT control (=1), own control 4.67 ± 0.27, n = 4",4.58 ± 0.30
same,Lung function,[6],significantly improved lung function
same,Therapeutic activity,[7],profound therapeutic activity
same,Alveolar fluid reabsorption,[8],activate fluid reabsorption in in situ and in vivo flooded rat lung models
